Measured values published in patent US11771663B2, “Epinephrine spray formulations” (HIKMA PHARMACEUTICALS USA INC., priority 2015, dated 2023).

Tests used:
[1] = Rabbit pharmacokinetics, single-dose non-crossover, plasma epinephrine by LC-MS/MS; type: in vivo, New Zealand white rabbits; settings: male, New Zealand white, intramuscular, 0.03 mg per animal, single-dose IM
Method: Protocol design was a single-dose non-crossover study. Pharmacokinetics of a number of epinephrine formulations were evaluated in healthy male New Zealand white rabbits weighing approximately two to three kilograms. For dosing of each formulation, five or six rabbits were used. The rabbits were fasted overnight till four hours' post administration. Blood samples were taken prior to administration and 5, 10, 15, 20, 30, 40 min, 1, 1.5, 2, 4, and 5 hours' post dose. Rabbit plasma samples were measured for epinephrine concentrations via liquid chromatography-tandem mass spectrometry. Formulation #R9 existed as a spray-dried powder of epinephrine bitartrate salt. For the evaluation of #R9, approximately 21.83 mg of powder was dosed to each animal, as an equivalent dose of 12 mg epinephrine.

[2] = Mini-pig pharmacokinetics, single-dose crossover, plasma epinephrine by LC-MS/MS; type: in vivo, Yucatan mini-pigs; settings: male, Yucatan, 0.3 mg per animal, minipig, single-dose intramuscular (IM), read-out: geometric mean plasma concentration of epinephrine
Method: Protocol design was a single-dose crossover study. Five healthy male Yucatan mini-pigs weighing approximately eighty to ninety-five kilograms each were administered epinephrine formulations. The minipigs were fasted overnight till four hours' post administration. Each dosing was followed by a washout period of at least one-week. Blood samples were taken prior to administration and 2, 5, 10, 15, 20, 30, 45 min, 1, 1.5, 2, 4, and 24 hours' post dose. Minipig plasma samples were measured for epinephrine concentrations via liquid chromatography-tandem mass spectrometry.

concentration at 5 min [1]: 0.988 ng/mL
concentration at 5 min [2]: 0.046 ng/mL
Structure (SMILES): CNC[C@H](O)c1ccc(O)c(O)c1 [epinephrine, Epinephrine]
